In patent EP0443899A1, “Process for synthetising oligomers of (methylbenzyl)xylene and their use as dielectric” (ELF ATOCHEM S.A., priority 1990, dated 1991) one finds tension de claquage, Cristallisation and cristallise data, which are given here for three substances.

Format in all cases: physicochemical
The nature of series [1]: Breakdown voltage, alternating current 50 Hz, method 2 (ramp 1000 V/30 s, asymmetric point/disc electrodes). The arrangement: unit not given here. The conditions noted are these: 50 Hz AC, 1000V every 30 s, point ø 0,6, disc ø 39,6, mean (extreme values). The source says:
(§1) Nous avons comparé différents liquides par la mesure de leur tension de claquage en courant alternatif 50 Hz dans les 2 conditions suivantes (méthodes 1 et 2) : • 1 - rampe 2000 V/s - électrodes dissymétriques. • pointe diamètre 0,6 mm • disque à bords arrondis Rogowski, diamètre 39,6 mm • distance interélectrode = 3,2 mm • 2 - rampe 1000 V/30s - électrodes dissymétriques • pointe diamètre 0,6 mm • disque diamètre 39,6 mm • distance 3,2-10-15-20 mm

The nature of series [2]: Crystallisation of the dielectric liquids at low temperature and on storage. As to conditions: for cristallise: general description, products prepared from orthoxylene. The source says:
Cristallisation du produit XXO1 de l'exemple 1, du produit XX02 de l'exemple 1, et d'un mélange de 85 % en poids de XXO1 et 15 % en poids de XX02 (voir exemple 1) qu'on appelle XX05.
On effectue les mêmes essais que dans l'exemple 3 mais avec des produits XX01 et XX02 préparés comme dans l'exemple 1 sauf qu'on utilise un mélange de 75 % d'orthoxylène et 25 % de paraxylène ou bien de 100 % d'orthoxylène.

The nature of series [3]: Breakdown voltage, alternating current 50 Hz, method 1 (ramp 2000 V/s, asymmetric point/disc electrodes). As to conditions: 50 Hz AC, point ø 0,6 mm, disc ø 39,6 mm, inter-electrode distance 3,2 mm, mean (extreme values).
From the text: as §1

With (méthylbenzyl)xylène [XX01], the tension de claquage in series [1] (inter-electrode distance 3,2 mm) is listed as 41,2 (37,7-45,3) (5); in series [1] (inter-electrode distance 10 mm), 69,5 (65,3-75,8) (5); in series [1] (inter-electrode distance 15 mm), 82,4 (74-89) (5); in series [1] (inter-electrode distance 20 mm), 93,8 (90,0-105,0) (5). In series [2] (Example 3, products of Example 1 (from orthoxylene)), the Cristallisation is -40 °C. Moreover, in series [2], the cristallise was -40 °C.
Regarding di(méthylbenzyl)xylène, in series [2], the cristallise result is “solide à la température ambiante”.
As to dodécylbenzène ramifié [DDB], the tension de claquage in series [3] was 39,0 (34,9-44,4) (10).
